Measured values reported in ChEMBL document CHEMBL1149008, “Antitumor agents, 81. Justicidin-A and diphyllin, two cytotoxic principles from Justicia procumbens” (1986).
Values after ≈ are worked out from the molar mass of the structure shown.

System: KB
Assay: Cytotoxicity against human KB cells
Format: functional
Details: read-out: ED50 (the source's name)

SMILES	EC50 [µg/mL]
O=C1OCc2c1cc1cc3c(cc1c2-c1ccc2c(c1)OCO2)OCO3	> 10.5
COc1cc2c(O)c3c(c(-c4ccc5c(c4)OCO5)c2cc1OC)C(=O)OC3 [DIPHYLLIN]	< 1
COc1cc2c(OC)c3c(c(-c4ccc5c(c4)OCO5)c2cc1OC)C(=O)OC3 [JUSTICIDIN A]	< 1
COc1c2c(c(-c3ccc4c(c3)OCO4)c3cc4c(cc13)OCO4)COC2=O [NEOJUSTICIN A]	9 (≈ 23.8 µM)
COc1cc2c(OC)c3c(c(-c4ccc5c(c4)OCO5)c2cc1OC)COC3=O [NEOJUSTICIN B]	> 10.5
